{"source": "patent US20190224260A1", "about": "“Metabolic Syndrome Inhibitor” (J-OIL MILLS, INC., priority 2016, published 2019)", "tested_on": "rat primary visceral fat cells", "assay": "Cell test: fat droplet area (Oil Red O staining) in visceral fat cells", "assay_type": "cell-based", "conditions": "test solution in DMSO diluted 1000-fold with medium; cultured 2+2 days; vs control group (DMSO); FIG. 15, p 0.01 or less", "procedure": "100 μL of dimethylsulfoxide (DMSO) was added to 4.147 mg of unsaponifiable matter, or 259.65 μL of dimethylsulfoxide (DMSO) was added to 1.0716 mg of the avenasterol fraction, and which was sonicated for 1 minute to obtain a test solution. The test solution of the unsaponifiable matter (avenasterol concentration: 1.41 mg/ml) was referred to as an unsaponifiable matter group, and the test solution of the avenasterol (avenasterol concentration: 3.60 mg/ml) was referred to as an avenasterol fraction group. Furthermore, a DMSO without the unsaponifiable matter nor the avenasterol fraction (control group) was prepared. Each test solution in each group was diluted 1000-fold with a medium described in the following “Cell test”, and sonicated for 1 minute to obtain a medium with the test solution. […]\nThe medium was removed, and the inside of the well was washed with 0.5 mL of phosphate buffered saline (PBS). […] The cells were microscopically observed at a magnification of 200 times, and visceral fat cells with stained fat droplets were recorded as images on a recording device of a computer.\nArea values of the lipid droplets stained with the Oil Red O on the above-described images were measured using the image processing software ImageJ (1.48 v) (obtained from https://imagej.nih.gov/ij/). The cell test was carried out three times, and four images were recorded in each group for each cell test. […]"}
{"substance": "Avenasterol", "values": [{"measurement": "fat accumulation in the fat cell (relative area value of fat droplets)", "value": "significantly inhibited"}]}
